The values below are quoted from earlier work in patent US11346820B2, “HPLC-PDA method and uses thereof in phytoestrogen measurement” (The Board Of Regents, The University of Texas System, priority 2019, dated 2022).

Like-named read-outs stand apart in the source and are kept apart here.

For this data set the following is noted: nonrepresentative subset of adults, N=199, Valentin-Blasini, et al.

In the case of `Oc1ccc([C@H]2COc3cc(O)ccc3C2)cc1` (racemic) [Equol], the means recovered was 36 ng/mL. In addition, where the note is “units converted”, the means recovered was 0.148 µmol/L.

Regarding `O=c1c(-c2ccc(O)cc2)coc2cc(O)cc(O)c12` [Genistein], the means recovered was 129 ng/mL. For the same molecule, where the note is “units converted”, the means recovered is 0.477 µmol/L.
